Measured values taken from ChEMBL document CHEMBL1201862, “PubChem BioAssay data set” (2004).
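The compound was tested at five concentrations on cells cultured in 96-well plates, with a 48-hour exposure period. GI50 is the concentration that inhibits growth by half.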 Active and inactive are the calls of the source. No stated cut-off is given here; in the data, active = GI50 up to about 1.1 µM and inactive = higher.

Tests used:
Assay in all cases: NCI anticancer screen, dose series, 48 h
IGROV-1 = system: IGROV-1
KM12 = system: KM12
SF-539 = system: SF-539
OVCAR-3 = system: OVCAR-3
Malme-3M = system: Malme-3M
EKVX = system: EKVX
K562 = system: K562
M14 = system: M14
HCT-15 = system: HCT-15
786-0 = system: 786-0
SNB-75 = system: SNB-75
MOLT-4 = system: MOLT-4
U-251 = system: U-251
SW-620 = system: SW-620
ACHN = system: ACHN
OVCAR-4 = system: OVCAR-4
RXF 393 = system: RXF 393
MCF7 = system: MCF7
SK-MEL-28 = system: SK-MEL-28
SN12C = system: SN12C
PC-3 = system: PC-3
NCI/ADR-RES = system: NCI/ADR-RES
HOP-92 = system: HOP-92
A549 = system: A549
RPMI-8226 = system: RPMI-8226
SR = system: SR
TK-10 = system: TK-10
COLO 205 = system: COLO 205
HCT-116 = system: HCT-116
HCC 2998 = system: HCC 2998
SK-MEL-5 = system: SK-MEL-5
UACC-62 = system: UACC-62
HOP-62 = system: HOP-62
UACC-257 = system: UACC-257
SF-295 = system: SF-295
NCI-H522 = system: NCI-H522
MDA-N = system: MDA-N
OVCAR-8 = system: OVCAR-8
SF-268 = system: SF-268
DU-145 = system: DU-145
CCRF-CEM = system: CCRF-CEM
UO-31 = system: UO-31
SNB-19 = system: SNB-19
T47D = system: T47D
NCI-H226 = system: NCI-H226
HL-60 = system: HL-60
OVCAR-5 = system: OVCAR-5
SK-MEL-2 = system: SK-MEL-2
MDA-MB-231 = system: MDA-MB-231
NCI-H460 = system: NCI-H460
BT-549 = system: BT-549
MDA-MB-435 = system: MDA-MB-435
Hs-578T = system: Hs-578T
HT-29 = system: HT-29
NCI-H23 = system: NCI-H23
LOX IMVI = system: LOX IMVI
SK-OV-3 = system: SK-OV-3
A498 = system: A498
CAKI-1 = system: CAKI-1

CN(NC(=O)CCCl)C1=NCCN1
GI50 (IGROV-1): > 100 µM (inactive)
GI50 (KM12): > 100 µM (inactive)
GI50 (SF-539): > 100 µM (inactive)
GI50 (OVCAR-3): > 100 µM (inactive)
GI50 (Malme-3M): > 100 µM (inactive)
GI50 (EKVX): > 100 µM (inactive)
GI50 (K562): > 100 µM (inactive)
GI50 (M14): > 100 µM (inactive)
GI50 (HCT-15): > 100 µM
GI50 (786-0): > 100 µM (inactive)
GI50 (SNB-75): > 100 µM (inactive)
GI50 (MOLT-4): > 100 µM (inactive)
GI50 (U-251): > 100 µM (inactive)
GI50 (SW-620): > 100 µM (inactive)
GI50 (ACHN): > 100 µM (inactive)
GI50 (OVCAR-4): > 100 µM (inactive)
GI50 (RXF 393): > 100 µM (inactive)
GI50 (MCF7): > 100 µM (inactive)
GI50 (SK-MEL-28): > 100 µM (inactive)
GI50 (SN12C): > 100 µM (inactive)
GI50 (PC-3): > 100 µM (inactive)
GI50 (NCI/ADR-RES): > 100 µM (inactive)
GI50 (HOP-92): > 100 µM (inactive)
GI50 (A549): > 100 µM (inactive)
GI50 (RPMI-8226): > 100 µM (inactive)
GI50 (SR): > 100 µM (inactive)
GI50 (TK-10): > 100 µM (inactive)
GI50 (COLO 205): > 100 µM (inactive)
GI50 (HCT-116): > 100 µM (inactive)
GI50 (HCC 2998): > 100 µM (inactive)
GI50 (SK-MEL-5): > 100 µM (inactive)
GI50 (UACC-62): > 100 µM (inactive)
GI50 (HOP-62): > 100 µM (inactive)
GI50 (UACC-257): > 100 µM (inactive)
GI50 (SF-295): > 100 µM (inactive)
GI50 (NCI-H522): > 100 µM (inactive)
GI50 (MDA-N): > 100 µM (inactive)
GI50 (OVCAR-8): > 100 µM (inactive)
GI50 (SF-268): > 100 µM (inactive)
GI50 (DU-145): > 100 µM (inactive)
GI50 (CCRF-CEM): > 100 µM (inactive)
GI50 (UO-31): > 100 µM (inactive)
GI50 (SNB-19): > 100 µM (inactive)
GI50 (T47D): > 100 µM (inactive)
GI50 (NCI-H226): > 100 µM (inactive)
GI50 (HL-60): > 100 µM (inactive)
GI50 (OVCAR-5): > 100 µM (inactive)
GI50 (SK-MEL-2): > 100 µM (inactive)
GI50 (MDA-MB-231): > 100 µM (inactive)
GI50 (NCI-H460): > 100 µM (inactive)
GI50 (BT-549): > 100 µM (inactive)
GI50 (MDA-MB-435): > 100 µM (inactive)
GI50 (Hs-578T): > 100 µM (inactive)
GI50 (HT-29): > 100 µM (inactive)
GI50 (NCI-H23): > 100 µM (inactive)
GI50 (LOX IMVI): > 100 µM (inactive)
GI50 (SK-OV-3): > 100 µM (inactive)
GI50 (A498): > 100 µM (inactive)

CC(=O)N(C(C)=O)c1cc2c3c(c1)CCCN3CCC2
GI50 (IGROV-1): > 10 µM (inactive)
GI50 (KM12): > 10 µM (inactive)
GI50 (SF-539): > 10 µM (inactive)
GI50 (OVCAR-3): > 10 µM (inactive)
GI50 (Malme-3M): > 10 µM (inactive)
GI50 (EKVX): > 10 µM (inactive)
GI50 (K562): > 10 µM (inactive)
GI50 (M14): > 10 µM (inactive)
GI50 (HCT-15): > 10 µM
GI50 (786-0): > 10 µM (inactive)
GI50 (SNB-75): > 10 µM (inactive)
GI50 (MOLT-4): > 10 µM (inactive)
GI50 (U-251): > 10 µM (inactive)
GI50 (SW-620): > 10 µM (inactive)
GI50 (ACHN): > 10 µM (inactive)
GI50 (OVCAR-4): > 10 µM (inactive)
GI50 (RXF 393): > 10 µM (inactive)
GI50 (MCF7): > 10 µM (inactive)
GI50 (SK-MEL-28): > 10 µM (inactive)
GI50 (SN12C): > 10 µM (inactive)
GI50 (CAKI-1): > 10 µM (inactive)
GI50 (PC-3): > 10 µM (inactive)
GI50 (NCI/ADR-RES): > 10 µM (inactive)
GI50 (HOP-92): > 10 µM (inactive)
GI50 (A549): > 10 µM (inactive)
GI50 (RPMI-8226): > 10 µM (inactive)
GI50 (SR): > 10 µM (inactive)
GI50 (TK-10): > 10 µM (inactive)
GI50 (COLO 205): > 10 µM (inactive)
GI50 (HCT-116): > 10 µM (inactive)
GI50 (HCC 2998): > 10 µM (inactive)
GI50 (SK-MEL-5): > 10 µM (inactive)
GI50 (UACC-62): > 10 µM (inactive)
GI50 (HOP-62): > 10 µM (inactive)
GI50 (UACC-257): > 10 µM (inactive)
GI50 (SF-295): > 10 µM (inactive)
GI50 (NCI-H522): > 10 µM (inactive)
GI50 (MDA-N): > 10 µM (inactive)
GI50 (OVCAR-8): > 10 µM (inactive)
GI50 (SF-268): > 10 µM (inactive)
GI50 (DU-145): > 10 µM (inactive)
GI50 (CCRF-CEM): > 10 µM (inactive)
GI50 (SNB-19): > 10 µM (inactive)
GI50 (T47D): > 10 µM (inactive)
GI50 (NCI-H226): > 10 µM (inactive)
GI50 (HL-60): > 10 µM (inactive)
GI50 (OVCAR-5): > 10 µM (inactive)
GI50 (SK-MEL-2): > 10 µM (inactive)
GI50 (MDA-MB-231): > 10 µM (inactive)
GI50 (NCI-H460): > 10 µM (inactive)
GI50 (BT-549): > 10 µM (inactive)
GI50 (MDA-MB-435): > 10 µM (inactive)
GI50 (Hs-578T): > 10 µM (inactive)
GI50 (HT-29): > 10 µM (inactive)
GI50 (NCI-H23): > 10 µM (inactive)
GI50 (LOX IMVI): > 10 µM (inactive)
GI50 (SK-OV-3): > 10 µM (inactive)
GI50 (A498): > 10 µM (inactive)

COc1ccc(/C=C/C(=O)N[C@@H]2C(=O)N3[C@@H]2SC(C)(C)[C@@H]3C(=O)O)cc1
GI50 (KM12): > 100 µM (inactive)
GI50 (SF-539): > 100 µM (inactive)
GI50 (OVCAR-3): > 100 µM (inactive)
GI50 (EKVX): > 100 µM (inactive)
GI50 (K562): > 100 µM (inactive)
GI50 (M14): > 100 µM (inactive)
GI50 (HCT-15): > 100 µM
GI50 (786-0): > 100 µM (inactive)
GI50 (SNB-75): > 100 µM (inactive)
GI50 (MOLT-4): > 100 µM (inactive)
GI50 (U-251): > 100 µM (inactive)
GI50 (SW-620): > 100 µM (inactive)
GI50 (ACHN): > 100 µM (inactive)
GI50 (OVCAR-4): > 100 µM (inactive)
GI50 (RXF 393): > 100 µM (inactive)
GI50 (MCF7): > 100 µM (inactive)
GI50 (SK-MEL-28): > 100 µM (inactive)
GI50 (SN12C): > 100 µM (inactive)
GI50 (CAKI-1): > 100 µM (inactive)
GI50 (PC-3): > 100 µM (inactive)
GI50 (NCI/ADR-RES): > 100 µM (inactive)
GI50 (HOP-92): 47.8 µM (inactive)
GI50 (A549): > 100 µM (inactive)
GI50 (RPMI-8226): > 100 µM (inactive)
GI50 (SR): > 100 µM (inactive)
GI50 (TK-10): > 100 µM (inactive)
GI50 (COLO 205): > 100 µM (inactive)
GI50 (HCT-116): > 100 µM (inactive)
GI50 (HCC 2998): > 100 µM (inactive)
GI50 (SK-MEL-5): > 100 µM (inactive)
GI50 (UACC-62): > 100 µM (inactive)
GI50 (HOP-62): > 100 µM (inactive)
GI50 (UACC-257): > 100 µM (inactive)
GI50 (SF-295): > 100 µM (inactive)
GI50 (NCI-H522): 69.2 µM (inactive)
GI50 (MDA-N): > 100 µM (inactive)
GI50 (OVCAR-8): > 100 µM (inactive)
GI50 (SF-268): > 100 µM (inactive)
GI50 (DU-145): > 100 µM (inactive)
GI50 (CCRF-CEM): > 100 µM (inactive)
GI50 (UO-31): > 100 µM (inactive)
GI50 (SNB-19): > 100 µM (inactive)
GI50 (T47D): > 100 µM (inactive)
GI50 (NCI-H226): > 100 µM (inactive)
GI50 (HL-60): > 100 µM (inactive)
GI50 (OVCAR-5): > 100 µM (inactive)
GI50 (SK-MEL-2): > 100 µM (inactive)
GI50 (MDA-MB-231): > 100 µM (inactive)
GI50 (NCI-H460): > 100 µM (inactive)
GI50 (BT-549): > 100 µM (inactive)
GI50 (MDA-MB-435): > 100 µM (inactive)
GI50 (Hs-578T): > 100 µM (inactive)
GI50 (HT-29): > 100 µM (inactive)
GI50 (NCI-H23): > 100 µM (inactive)
GI50 (LOX IMVI): > 100 µM (inactive)
GI50 (SK-OV-3): > 100 µM (inactive)
GI50 (A498): > 100 µM (inactive)
